Data reported in US20250346600A1, “TRICYCLIC DERIVATIVES AND RELATED USES” (MOMA Therapeutics, Inc., priority 2023, published 2025).
Like-named read-outs stand apart in the source and are kept apart here.

Legend:
[1] = biological target: Full length WRN protein (aa 2-1432) (Homo sapiens (Human), UniProt Q14191); experiment: WRN ATPase ADP-Glo biochemical assay, Assay Format B (100 μM ATP); details: 0.25 nM WRN, 100 nM C6.18 ssDNA, 60 min preincubation, read-out: ATPase ADPGlo AC50 (uM)- Assay Format B
HCT116 cells = experiment: HCT116 (MSI) 7 day viability, CellTiter Glo; type: cell-based; details: 7 days, read-out: HCT116 (MSI) Viability 7 Day Abs AC50
Protocol: (§1) Compounds were dissolved in DMSO to a concentration of 10 mM. Compounds were then serially diluted in 10 3-fold steps in DMSO using an EVO (Tecan). Plates were then spun down for 1 minute at 1,000 RPM at room temperature.
(§2) The colon carcinoma lines HCT116 (RRID: CVCL_0291) and HT29 (RRID: CVCL_0320) were obtained from ATCC. […] All cells were maintained at 37° C. with 5% CO2 incubator.
(§3) After harvesting, cells were spun down for 5 minutes at 1200 RPM. Cells were resuspended in 10 mL of growth media and counted using Countess (Thermo Fisher). Cell concentrations were adjusted to 50 cells/well for HCT116 and 500 cells/well for HT29. 50 μL of diluted cells were added to compound treated 384 well plates using a 12 channel, 300 uL electronic handheld pipette (Integra). Cell treated plates were placed in 37 C with 5% CO2 incubator for 7 days.
(§4) Afterwards, cells were removed from incubator and equilibrated to room temperature for 15 minutes. 35 uL of CellTiter Glo (Promega #G7573) reagent were added to each well using a 12 channel, 300 uL electronic handheld pipette (Integra). Plates were incubated for 20 minutes at room temperature. Luminescence quantification was performed using Envision (PerkinElmer).
(§5) For data analysis, the assay background signal was determined in wells containing medium, but no cells. Potencies were calculated by linear least squares fit to the four-parameter logistic IC50 equation. The reported IC50 values are the geometrical mean of at least 2 independent replicates.

HT29 cells = experiment: HT29 (MSS) 7 day viability, CellTiter Glo; type: cell-based; details: 7 days, read-out: HT29 (MSS) Viability 7 Day CTGAbs AC50
Protocol: as §1, §2, §3, §4, §5

Chain of Full length WRN protein (aa 2-1432) (Q14191 2-1432): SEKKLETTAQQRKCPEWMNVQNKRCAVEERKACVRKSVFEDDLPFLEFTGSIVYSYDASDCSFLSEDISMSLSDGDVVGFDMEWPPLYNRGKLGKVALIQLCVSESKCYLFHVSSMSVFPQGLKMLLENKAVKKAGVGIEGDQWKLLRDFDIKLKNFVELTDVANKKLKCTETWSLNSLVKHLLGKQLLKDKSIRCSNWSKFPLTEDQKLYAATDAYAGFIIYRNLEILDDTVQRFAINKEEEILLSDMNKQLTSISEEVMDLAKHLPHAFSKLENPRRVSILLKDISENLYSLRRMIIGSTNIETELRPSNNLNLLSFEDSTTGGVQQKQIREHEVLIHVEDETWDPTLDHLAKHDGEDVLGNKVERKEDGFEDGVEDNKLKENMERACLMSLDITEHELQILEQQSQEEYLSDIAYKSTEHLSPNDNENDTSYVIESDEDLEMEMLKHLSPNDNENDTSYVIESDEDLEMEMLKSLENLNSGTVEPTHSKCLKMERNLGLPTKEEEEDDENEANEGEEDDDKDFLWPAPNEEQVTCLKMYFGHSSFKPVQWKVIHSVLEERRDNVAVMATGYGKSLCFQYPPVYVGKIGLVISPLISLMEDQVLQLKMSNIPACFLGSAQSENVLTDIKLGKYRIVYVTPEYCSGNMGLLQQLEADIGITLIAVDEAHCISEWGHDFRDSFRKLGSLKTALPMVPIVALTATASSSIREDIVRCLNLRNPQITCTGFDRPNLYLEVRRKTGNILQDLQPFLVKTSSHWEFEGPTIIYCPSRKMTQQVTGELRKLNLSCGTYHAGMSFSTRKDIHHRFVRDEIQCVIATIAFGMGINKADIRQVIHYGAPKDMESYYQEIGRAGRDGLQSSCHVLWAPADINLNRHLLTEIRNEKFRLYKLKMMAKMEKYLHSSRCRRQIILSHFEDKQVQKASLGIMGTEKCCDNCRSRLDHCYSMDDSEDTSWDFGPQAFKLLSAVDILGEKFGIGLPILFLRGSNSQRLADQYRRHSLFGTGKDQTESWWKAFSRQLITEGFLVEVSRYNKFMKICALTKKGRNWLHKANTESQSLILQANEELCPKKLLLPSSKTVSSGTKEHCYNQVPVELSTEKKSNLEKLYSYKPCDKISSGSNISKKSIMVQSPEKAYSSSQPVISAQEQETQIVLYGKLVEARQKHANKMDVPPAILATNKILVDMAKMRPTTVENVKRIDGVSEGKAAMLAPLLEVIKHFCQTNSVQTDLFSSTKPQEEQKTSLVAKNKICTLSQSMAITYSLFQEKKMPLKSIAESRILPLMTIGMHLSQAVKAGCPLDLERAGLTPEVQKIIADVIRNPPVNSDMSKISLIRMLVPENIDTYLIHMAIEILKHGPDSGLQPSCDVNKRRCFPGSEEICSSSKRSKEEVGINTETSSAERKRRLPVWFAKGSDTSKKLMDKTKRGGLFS

| Molecule | AC50 [1] [µM] | AC50 (HCT116 cells; Homo sapiens, HCT-116, 168 h) [nM] | AC50 (HT29 cells; Homo sapiens, HT-29, 168 h) [nM] | AC50 (HCT116 cells) [nM] | AC50 (HT29 cells) [nM] |
| --- | --- | --- | --- | --- | --- |
| C=CC(=O)N1CCc2nn(-c3ccc(C4CC4)cc3)c3c2C(C1)N(C(=O)c1c(N)nc(C(F)(F)F)c(F)c1N)CC3 (stereo not shown) [Compound 220, 1-(2-(4-cyclopropylphenyl)-5-(2,4-diamino-5-fluoro-6-(trifluoromethyl)nicotinoyl)-2,3,4,5,5a,6,8,9-octahydro-7H-1,2,5,7-tetraazabenzo[cd]azulen-7-yl)prop-2-en-1-one] | 0.0015 to 0.005 | 1 to 100 | > 3000 |  |  |
| C=CC(=O)N1CCc2nn(C34CC(C5CCCC5)(C3)C4)c3c2C(C1)N(C(=O)c1cnc(C(F)(F)F)cc1N)CC3 (stereo not shown) [Compound 219, 1-(5-(4-amino-6-(trifluoromethyl)nicotinoyl)-2-(3-cyclopentylbicyclo[1.1.1]pentan-1-yl)-2,3,4,5,5a,6,8,9-octahydro-7H-1,2,5,7-tetraazabenzo[cd]azulen-7-yl)prop-2-en-1-one] | 0.005 to 0.015 |  |  | 1 to 100 | > 3000 |
| C=CC(=O)N1CCc2nn(-c3ccc(C4CC4)c(F)c3O)c3c2C(C1)N(C(=O)c1cnc(C(C)(F)F)c(F)c1N)CC3 (stereo not shown) [Compound 227, 1-(5-(4-amino-6-(1,1-difluoroethyl)-5-fluoronicotinoyl)-2-(4-cyclopropyl-3-fluoro-2-hydroxyphenyl)-2,3,4,5,5a,6,8,9-octahydro-7H-1,2,5,7-tetraazabenzo[cd]azulen-7-yl)prop-2-en-1-one] | 0.005 to 0.015 | 1 to 100 | < 1000 |  |  |
| C=CC(=O)N1CCc2nn(-c3ccc(C(C)C)cc3)c3c2C(C1C)N(C(=O)c1cnc(C(F)(F)F)cc1N)CC3 (stereo not shown) [Compound 168, 1-(5-(4-amino-6-(trifluoromethyl)nicotinoyl)-2-(4-isopropylphenyl)-6-methyl-2,3,4,5,5a,6,8,9-octahydro-7H-1,2,5,7-tetraazabenzo[cd]azulen-7-yl)prop-2-en-1-one] | 0.005 to 0.015 | 1 to 100 | > 3000 |  |  |
| C=CC(=O)N1CCc2nn(-c3ccc(C4CC4)cc3O)c3c2C(C1)N(C(=O)c1cnc(Cl)c(F)c1N)CC3 (stereo not shown) [Compound 210, 1-(5-(4-amino-6-chloro-5-fluoronicotinoyl)-2-(4-cyclopropyl-2-hydroxyphenyl)-2,3,4,5,5a,6,8,9-octahydro-7H-1,2,5,7-tetraazabenzo[cd]azulen-7-yl)prop-2-en-1-one] | 0.0015 to 0.005 | 1 to 100 | > 3000 |  |  |
| C=CC(=O)N1CCc2nn(-c3ccc(C4CC4)cc3)c3c2C(C1)N(C(=O)c1cnc(SC)nc1N)CC3 (stereo not shown) [Compound 204, 1-(5-(4-amino-2-(methylthio)pyrimidine-5-carbonyl)-2-(4-cyclopropylphenyl)-2,3,4,5,5a,6,8,9-octahydro-7H-1,2,5,7-tetraazabenzo[cd]azulen-7-yl)prop-2-en-1-one] | 0.015 to 0.055 | 1 to 100 | > 3000 |  |  |
| C=CC(=O)N1CC2c3c(nn(-c4ccc(C5CC5)cc4)c3CCN2C(=O)c2ccc(C(F)(F)F)cc2)C(n2ccccc2=O)C1 (stereo not shown) [Compound 231, 1-(7-acryloyl-2-(4-cyclopropylphenyl)-5-(4-(trifluoromethyl)benzoyl)-3,4,5,5a,6,7,8,9-octahydro-2H-1,2,5,7-tetraazabenzo[cd]azulen-9-yl)pyridin-2(1H)-one] | 0.015 to 0.055 | 1 to 100 | > 3000 |  |  |
| C=CC(=O)N1CCc2nn(-c3ccc(C4CC4)cc3O)c3c2C(C1)N(C(=O)c1cnc(C(F)(F)F)c(O)c1)CC3 (stereo not shown) [Compound 175, 1-(2-(4-cyclopropyl-2-hydroxyphenyl)-5-(5-hydroxy-6-(trifluoromethyl)nicotinoyl)-2,3,4,5,5a,6,8,9-octahydro-7H-1,2,5,7-tetraazabenzo[cd]azulen-7-yl)prop-2-en-1-one] | 0.0015 to 0.005 | 100 to 250 | > 3000 |  |  |
| C=CC(=O)N1CCc2nn(-c3ccc(C4CC4)cc3O)c3c2C(C1)N(C(=O)c1ccc(C(F)(F)F)nc1)CC3 (stereo not shown) [Compound 213, 1-(2-(4-cyclopropyl-2-hydroxyphenyl)-5-(6-(trifluoromethyl)nicotinoyl)-2,3,4,5,5a,6,8,9-octahydro-7H-1,2,5,7-tetraazabenzo[cd]azulen-7-yl)prop-2-en-1-one] | 0.005 to 0.015 | 1 to 100 | > 3000 |  |  |
| C=CC(=O)N1CCc2nn(-c3ccc(C4CCC4)cc3)c3c2C(C1)N(C(=O)c1ccc2c(Cl)ncn2c1)CC3 (stereo not shown) [Compound 236, 1-(5-(1-chloroimidazo[1,5-a]pyridine-6-carbonyl)-2-(4-cyclobutylphenyl)-2,3,4,5,5a,6,8,9-octahydro-7H-1,2,5,7-tetraazabenzo[cd]azulen-7-yl)prop-2-en-1-one] | 0.005 to 0.015 | 1 to 100 | > 3000 |  |  |
| C=CC(=O)N1CCc2nn(-c3cc(F)c(C4CC4)cc3O)c3c2C(C1)N(C(=O)c1cnc(C(F)(F)F)cc1N)CC3 (stereo not shown) [Compound 224, 1-(5-(4-amino-6-(trifluoromethyl)nicotinoyl)-2-(4-cyclopropyl-5-fluoro-2-hydroxyphenyl)-2,3,4,5,5a,6,8,9-octahydro-7H-1,2,5,7-tetraazabenzo[cd]azulen-7-yl)prop-2-en-1-one] | 0.005 to 0.015 | 1 to 100 | > 3000 |  |  |
| C=CC(=O)N1CCc2nn(-c3ccc(C(C)C)c(F)c3O)c3c2C(C1)N(C(=O)c1cnc(C(F)(F)F)c(O)c1)CC3 (stereo not shown) [Compound 64, 1-(2-(3-fluoro-2-hydroxy-4-isopropylphenyl)-5-(5-hydroxy-6-(trifluoromethyl)nicotinoyl)-2,3,4,5,5a,6,8,9-octahydro-7H-1,2,5,7-tetraazabenzo[cd]azulen-7-yl)prop-2-en-1-one] | 0.015 to 0.055 | 1 to 100 | > 3000 |  |  |
| C=CC(=O)N1CCc2nn(-c3ccc(C4CCC4)cc3O)c3c2C(C1)N(C(=O)c1cc(F)c(C(F)(F)F)nc1N)CC3 (stereo not shown) [Compound 165, 1-(5-(2-amino-5-fluoro-6-(trifluoromethyl)nicotinoyl)-2-(4-cyclobutyl-2-hydroxyphenyl)-2,3,4,5,5a,6,8,9-octahydro-7H-1,2,5,7-tetraazabenzo[cd]azulen-7-yl)prop-2-en-1-one] | 0.015 to 0.055 | 1 to 100 | > 3000 |  |  |
| C=CC(=O)N1CCc2nn(-c3ccc(C4CC4)cc3O)c3c2C(C1)N(C(=O)c1cnc(SC)cc1N)CC3 (stereo not shown) [Compound 211, 1-(5-(4-amino-6-(methylthio)nicotinoyl)-2-(4-cyclopropyl-2-hydroxyphenyl)-2,3,4,5,5a,6,8,9-octahydro-7H-1,2,5,7-tetraazabenzo[cd]azulen-7-yl)prop-2-en-1-one] | 0.0015 to 0.005 | 1 to 100 | > 3000 |  |  |
| C=CC(=O)N1CCOc2nn(-c3ccc(C(C)C)c(O)n3)c3c2C(C1)N(C(=O)c1ccc(Br)c2[nH]cnc12)CC3 (stereo not shown) [Compound 105, 1-(5-(7-bromo-1H-benzo[d]imidazole-4-carbonyl)-2-(6-hydroxy-5-isopropylpyridin-2-yl)-2,3,4,5,5a,6,8,9-octahydro-7H-10-oxa-1,2,5,7-tetraazacycloocta[cd]inden-7-yl)prop-2-en-1-one] |  | > 1000 | > 3000 |  |  |
| 1-(5-(7-bromo-1H- benzo[d]imidazole-4- carbonyl)-2-(4- cyclobutylphenyl)- 2,3,4,5,5a,6-hexahydro- 1,2,5,7- tetraazaspiro[benzo[cd] azulene-9,1′- cyclopropan]-1(9a),2a- dien-7(8H)-yl)prop-2-en- 1-one [Compound 169] |  |  |  | 1 to 100 | > 3000 |
